Test results taken from patent US20150079000A1, “Labelled Quinoxaline Derivatives as Multimodal Radiopharmaceuticals and Their Precursors” (INSTITUT NATIONAL DE LA SANTET DE LA RECHERCHE MEDICALE, priority 2012, published 2015).

Assays:
B16BL6 tumour = test: PET imaging in B16BL6 tumour bearing mice; assay type: in vivo, C57BL/6J mice; settings: 1 h p.i., day-15
Procedure: (§1) All our studies were performed in accordance with French and European Economic Community (86-609, EEC) guidelines for care of laboratory animals. Protocols were performed under the authorization of the French Direction des Services Veterinaires (authorization no. CE 86-12). Male C57BL/6J mice were originating from Charles River laboratories and maintained at 21° C. with a 12 h/12 h light/dark cycle, fed with a breeding diet (diet A04 from Safe, Villemoisson, France) and received water ad libitum. For transplantation B16BL6 cell suspension were grown in a monolayer culture to confluence, after which cells were trypsinized, washed with phosphate buffer saline (PBS) and they were resuspended in PBS. Mice were anesthetized by isoflurane (4% for induction and 2±0.5% for maintaining in oxygen flux) inhalation. The primary tumour model was induced by subcutaneous injection of 3×10^5 melanoma B16B16 cells in 0.1 mL on the right shoulder of mice.
Whole-body PET scans were acquired 1 h after bolus injection of […] of the appropriate [^18F]-compound in a volume of 0.15 ml via the tail vein. Mice were anesthetized by intraperitoneal (i.p.) administration (200 μL/mouse) of a ketamine-xylazine mixture in saline: ketamine (100 mg/kg, Imalgene™, Rhône Mérieux, Lyon, France) and xylazine (10 mg/kg, Rompun™, Bayer, France) before radiotracer injection and imaged by using a small-animal PET device, eXplore Vista microPET instrument (GE Healthcare). PET images were acquired by using static mode during 20 min. The acquired data were reconstructed using the 2-Dimensional ordered-subsets expectation maximization (OSEM) algorithm and corrected from decay, scatter and randoms. No corrections were applied for partial volume or attenuation.
Regional tracer uptake was quantified by standard region-of-interest (ROI) analysis with eXplore Vista software package. A manual 2D-ROI was drawn around the tumour in each slice where tumour was visible, and on several subsequent coronal planes containing muscle tissue at the forelimb. Results are expressed by percentage of injected dose per gram of tissue (% ID/g).
PET imaging was performed 1 h post injection of tracers in B16BL6 tumour bearing mice at day-15 after tumours cell inoculation.

[1] = radiochemical stability of the radiotracer after preparation; assay type: physicochemical
[2] = octanol/water (PBS buffer) partition coefficient (log D); assay type: physicochemical
[3] = tested on: B16 murine melanoma tumours; test: Ex vivo biodistribution of [18F]-labelled compounds; assay type: in vivo, C57BL/6J mice
Procedure: as §1
Ex vivo biodistribution studies: An ex vivo biodistribution study was performed for better comparison of [^18F](1) and [^18F](5). Experimentations were undertaken at day-10 or day-14 after cell inoculation (n=3-6/group). […] Tumours and major organs and tissues were promptly excised, harvested, weighted and their radioactivity counted using a calibrated γ-counter with a 400 to 600 keV energy window. After radioactive decay correction, results were expressed as percentage of injected dose per gram of tissue (% ID/g).

CCN(CCNC(=O)c1cnc2cc(I)ccc2n1)CCOCCOCCOCCOCCOCCOCCOCC[18F] [[^18F](5)]
eyes uptake (B16BL6 tumour): 5.53±1.35 % ID/g
muscles activity (B16BL6 tumour): 1.01±0.09 % ID/g
tumour uptake (B16BL6 tumour): 6.63±1.64 % ID/g
tumour/muscle ratio (B16BL6 tumour): 6.62±1.90
radiochemically stable at room temperature after preparation [1]: at least 6 h
octanol/water (PBS buffer) partition coefficient (log D) [2]: 0.95±0.02
% ID/g (tumour) ([3]; 1 h p.i.): 9.81 ± 2.96 % ID/g
% ID/g Blood ([3]; 1 h p.i.): 1.15 ± 0.19 % ID/g
% ID/g Bones ([3]; 1 h p.i.): 1.82±0.55 % ID/g
% ID/g Brain ([3]; 1 h p.i.): 1.03 ± 0.18 % ID/g
% ID/g Ceacum ([3]; 1 h p.i.): 6.37 ± 4.84 % ID/g
% ID/g Colon + faeces ([3]; 1 h p.i.): 7.39 ± 1.36 % ID/g
% ID/g Eyes ([3]; 1 h p.i.): 12.24 ± 4.39 % ID/g
% ID/g Heart ([3]; 1 h p.i.): 1.58 ± 0.24 % ID/g
% ID/g Kidney ([3]; 1 h p.i.): 3.60 ± 1.74 % ID/g
% ID/g Liver ([3]; 1 h p.i.): 2.02 ± 0.19 % ID/g
% ID/g Lung ([3]; 1 h p.i.): 1.75 ± 0.18 % ID/g
% ID/g Muscle ([3]; 1 h p.i.): 1.07 ± 0.35 % ID/g
% ID/g Pancreas ([3]; 1 h p.i.): 2.63 ± 1.33 % ID/g
% ID/g Skin ([3]; 1 h p.i.): 1.22 ± 0.22 % ID/g
% ID/g Small intestine ([3]; 1 h p.i.): 16.68 ± 7.93 % ID/g
% ID/g Spleen ([3]; 1 h p.i.): 2.35 ± 0.91 % ID/g
% ID/g Stomach ([3]; 1 h p.i.): 5.87 ± 3.32 % ID/g
TBR Tumour-to-Blood Ratio ([3]; 1 h p.i.): 8.29 ± 2.87
TBoR Tumour-to-Bone Ratio ([3]; 1 h p.i.): 5.35 ± 0.82
TMR Tumour-to-Muscle Ratio ([3]; 1 h p.i.): 9.48 ± 2.41
% ID/g (tumour) ([3]; 2 h p.i.): 5.81 ± 1.37 % ID/g
% ID/g Blood ([3]; 2 h p.i.): 1.37 ± 0.30 % ID/g
% ID/g Bones ([3]; 2 h p.i.): 2.13 ± 0.19 % ID/g
% ID/g Brain ([3]; 2 h p.i.): 1.03 ± 0.10 % ID/g
% ID/g Ceacum ([3]; 2 h p.i.): 12.10 ± 10.31 % ID/g
% ID/g Colon + faeces ([3]; 2 h p.i.): 8.14 ± 1.78 % ID/g
% ID/g Eyes ([3]; 2 h p.i.): 12.10 ± 1.85 % ID/g
% ID/g Heart ([3]; 2 h p.i.): 1.70 ± 0.24 % ID/g
% ID/g Kidney ([3]; 2 h p.i.): 3.52 ± 1.02 % ID/g
% ID/g Liver ([3]; 2 h p.i.): 2.31 ± 0.64 % ID/g
% ID/g Lung ([3]; 2 h p.i.): 1.72 ± 0.72 % ID/g
% ID/g Muscle ([3]; 2 h p.i.): 1.04 ± 0.24 % ID/g
% ID/g Pancreas ([3]; 2 h p.i.): 1.56 ± 0.38 % ID/g
% ID/g Skin ([3]; 2 h p.i.): 0.94 ± 0.51 % ID/g
% ID/g Small intestine ([3]; 2 h p.i.): 19.51 ± 5.43 % ID/g
% ID/g Spleen ([3]; 2 h p.i.): 2.38 ± 0.87 % ID/g
% ID/g Stomach ([3]; 2 h p.i.): 7.35 ± 4.79 % ID/g
TBR Tumour-to-Blood Ratio ([3]; 2 h p.i.): 4.01 ± 1.12
TBoR Tumour-to-Bone Ratio ([3]; 2 h p.i.): 2.75 ± 0.80
TMR Tumour-to-Muscle Ratio ([3]; 2 h p.i.): 5.75 ± 1.45
% ID/g (tumour) ([3]; 3 h p.i.): 6.76±1.35 % ID/g
% ID/g Blood ([3]; 3 h p.i.): 0.99 ± 0.20 % ID/g
% ID/g Bones ([3]; 3 h p.i.): 3.61 ± 1.12 % ID/g
% ID/g Brain ([3]; 3 h p.i.): 1.72 ± 0.67 % ID/g
% ID/g Ceacum ([3]; 3 h p.i.): 29.31 ± 17.94 % ID/g
% ID/g Colon + faeces ([3]; 3 h p.i.): 12.63 ± 7.83 % ID/g
% ID/g Eyes ([3]; 3 h p.i.): 13.43 ± 2.17 % ID/g
% ID/g Heart ([3]; 3 h p.i.): 3.00 ± 1.12 % ID/g
% ID/g Kidney ([3]; 3 h p.i.): 2.60 ± 1.69 % ID/g
% ID/g Liver ([3]; 3 h p.i.): 2.60 ± 1.37 % ID/g
% ID/g Lung ([3]; 3 h p.i.): 2.37 ± 0.67 % ID/g
% ID/g Muscle ([3]; 3 h p.i.): 1.11 ± 0.34 % ID/g
% ID/g Pancreas ([3]; 3 h p.i.): 1.81 ± 0.66 % ID/g
% ID/g Skin ([3]; 3 h p.i.): 1.47 ± 0.49 % ID/g
% ID/g Small intestine ([3]; 3 h p.i.): 18.62 ± 13.65 % ID/g
% ID/g Spleen ([3]; 3 h p.i.): 2.35 ± 0.98 % ID/g
% ID/g Stomach ([3]; 3 h p.i.): 5.39 ± 3.13 % ID/g
TBR Tumour-to-Blood Ratio ([3]; 3 h p.i.): 5.27±0.20
TBoR Tumour-to-Bone Ratio ([3]; 3 h p.i.): 2.16 ± 1.15
TMR Tumour-to-Muscle Ratio ([3]; 3 h p.i.): 6.64±2.69
in vivo defluorination ([3]; 3 h p.i.): Partial in vivo defluorinations

CCN(CCNC(=O)c1cnc2cc(I)ccc2n1)Cc1cn(CC[18F])nn1 [[^18F](7)]
muscles activity (B16BL6 tumour): 0.84 % ID/g
tumour uptake (B16BL6 tumour): 14.55 % ID/g
tumour/muscle ratio (B16BL6 tumour): 17.41
radiochemically stable at room temperature after preparation [1]: at least 6 h
octanol/water (PBS buffer) partition coefficient (log D) [2]: 2.22±0.03
